The record followed here is patent publication US9051564B2, “Compositions for and methods of identifying antigens” (President and Fellows of Harvard College, priority 2006, dated 2015).

Common to all, as to assay type: cell-based, mouse
The test system of assay [1] is T cell clone NR9.2. Put plainly: Epitope mapping: overlapping synthetic 20-mer Cta1 peptides tested for stimulating NR9.2 to secrete IFNγ (ELISA). As to conditions: for IFNγ measured: T cell line NR9.2, synthetic peptides at 25 μM. From the text: FIG. 22 is a graph showing T cell clone NR9.2 recognizes the novel T cell antigen Cta1133-152 (SEQ ID NO:2). The antigenic peptide from Cta1 was mapped by testing overlapping 20-mer synthetic peptides for their ability to stimulate NR9.2 to secrete IFNγ. […] Shown below is the protein sequence of Cta1 (SEQ ID NO:1) with […] (SEQ ID NO:2) underlined.
To map more closely the epitope within Cta1 recognized by the NR9.2 T cells, a series of overlapping 20-mer peptides covering the Cta1 sequence for their ability to stimulate NR9.2 to secrete IFNγ were screened (Table 2).
Identification of the T cell antigen Cta1. An expression library of genomic sequences from C. trachomatis serovar D was inserted into a modified form of the pDEST17 vector (Invitrogen) and transformed into the Stb12 strain of E. coli (Invitrogen). Following induction of protein expression, the bacteria were fixed in 0.5% paraformaldehyde and incubated with BMMs. NR9.2 T cells were then added and after 24 h, the supernatant was tested for the level of IFNγ by ELISA (Endogen, Rockford, Ill.). To identify the reactive peptide epitope within Cta1, synthetic 20-mer peptides (MIT Biopolymers Lab, Cambridge, Mass.) were used at a concentration of 25 μM in an IFNγ ELISA (Endogen).
(In general: An ELISA detects its analyte on a solid surface through an enzyme-linked reagent.)

The test system of assay [2] is spleen cells from NR1 TCR transgenic mice. Put plainly: IFNγ secretion by NR1 spleen cells in response to peptide. The settings on record: data not shown.
Assay [3] shares this test system. Put plainly: Proliferation of NR1 transgenic splenocytes in response to peptide ([3H]thymidine incorporation). The settings on record: spleen cells from naïve NR1 mice. Here is the method: FIG. 16B is a graph showing proliferation of splenocytes from NR1 transgenic or non-transgenic mice in response to the indicated concentrations of Cta1133-152 (SEQ ID NO:2). Proliferation was measured by [^3H]thymidine incorporation into cells.
To determine whether the NR1 transgenic T cells were specific and responsive to Cta1, we tested the proliferation of transgenic spleen cells in response to Cta1133-152 (see FIG. 14; SEQ ID NO:2).
On the technique in general: Incorporation of labelled thymidine or its analogues reports DNA synthesis.

Assay [4] deals with T cell clone NR9.2. Put plainly: Screen of E. coli clones expressing C. trachomatis ORFs, cultured with BMMs and T cell clone NR9.2, IFNγ ELISA. The method, then:
FIG. 15 is an image showing clones of E. coli expressing individual C. trachomatis ORFs cultured with BMMs and then incubated with the T cell clone NR9.2. […] E. coli expressing Cta1 (encoded by ORF CT788) induced NR9.2 to secrete high levels of IFNγ (>370 ng/ml) whereas E. coli expressing other Chlamydia proteins in the library induced only background levels of IFNγ secretion (<26 ng/ml). The well indicated as Cta1 and ELISA Standards are yellow; other wells are colorless. […] ELISA standards corresponding to high amounts of IFNγ are indicated.
Chlamydia specific CD4+ T cell clone. To identify a Chlamydia-specific TCR for the creation of TCR transgenic mice, we generated a Chlamydia-specific CD4^+ T cell clone named NR9.2. The clone specifically secreted IFNγ when co-cultured with Chlamydia-infected macrophages in an intracellular cytokine staining assay (FIG. 13A). […] A library of proteins expressed by the C. trachomatis ORFs contained in the genome database was screened. […] CT788 was annotated in the published C. trachomatis genome as a predicted periplasmic protein of unknown function (Stephens et al., Science 282:754-759, 1998), and its sequence shares little homology with proteins outside of the Chlamydia genus. CT788 was designated Cta1 (Chlamydia-specific T cell antigen-1).
Identification of the T cell antigen Cta1. […]

“Also recorded” adds a separate entry of the source.

With “GCANKKNRNLIGWFLAGMFF [overlapping synthetic 20-mer peptide of Cta1]”, in the assay on T cell clone NR9.2 [1], the IFNγ measured is 0.5 (±0.3) ng.
Same read-out and setting: the result for “VKDESPSFLVQSGVAGLEQL [overlapping synthetic 20-mer peptide of Cta1]” reads 0.7 (±0.2) ng; that for “LESTSLYKKAGCANKKNRNL [overlapping synthetic 20-mer peptide of Cta1]”, 0.4 (±0.2) ng.
Still for that read-out and setting: as for “WKKGMPNWEKVKNIPELSGT [overlapping synthetic 20-mer peptide of Cta1]”, the figure is 1.4 (±0.2) ng; as for “SEIISIPDTMNQIAIDTEKW [overlapping synthetic 20-mer peptide of Cta1]”, 0.6 (±0.2) ng.
Same read-out and setting: the result for “QSGVAGLEQLESI [C-terminal overlapping synthetic peptide of Cta1]” reads 0.8 (±0.2) ng.
In the case of “FLKECKHSPEKGIDPQELWV [overlapping synthetic 20-mer peptide of Cta1]”, in the assay on T cell clone NR9.2 [1], the IFNγ measured is 0.5 (±0.4) ng.
On the same count and under the same terms, the result for “GPISIVQLTAFLKECKHSPE [overlapping synthetic 20-mer peptide of Cta1]” reads 0.5 (±0.3) ng.
Still for that read-out and setting: the result for “EFLLQNTLEDSEIISIPDTM [overlapping synthetic 20-mer peptide of Cta1]” reads 0.6 (±0.2) ng.
Still for that read-out and setting: the result for “GIFAIIFLLILPPLPSSTQD [overlapping synthetic 20-mer peptide of Cta1]” reads 0.4 (±0.2) ng; that for “LPPLPSSTQDNRSMDQQDSE [overlapping synthetic 20-mer peptide of Cta1]”, 0.6 (±0.2) ng.
Regarding “KGIDPQELWVWKKGMPNWEK (listed as Chlamydia trachomatis) [20-mer peptide, amino acids 133-152 of Cta1 (CT788)]”, the IFNγ measured in the assay with T cell clone NR9.2 [1] was 58.0 (±14.0) ng. In the assay on T cell clone NR9.2 [1] (overlapping 20-mer peptides, listed as Cta1133-152), the “ability to stimulate NR9.2 to secrete IFNγ (in words)” value is on record as “induced NR9.2 to secrete significant levels of IFNγ; also recorded: stimulated NR9.2 to secrete significant levels of IFNγ”. For the same molecule, the “IFNγ secretion by NR1 spleen cells in response to peptide” value in assay [2] was “secreted high levels of IFNγ”. Besides, in assay [3], the “proliferation of NR1 spleen cells in response to peptide” value was “strong proliferative response”.
As for “FYLNKDYTNVGPISIVQLTA [overlapping synthetic 20-mer peptide of Cta1]”, the IFNγ measured with T cell clone NR9.2 [1] is recorded as 0.7 (±0.4) ng.
Still for that read-out and setting: the result for “VKNIPELSGTVKDESPSFLV [overlapping synthetic 20-mer peptide of Cta1]” reads 0.8 (±0.1) ng; that for “IGWFLAGMFFGIFAIIFLLI [overlapping synthetic 20-mer peptide of Cta1]”, 0.6 (±0.3) ng.
Take “OVA323-336: control peptide from ovalbumin (KISQAVHAAHAEIN) [reference compound]”: the “proliferation of NR1 spleen cells in response to peptide” value in assay [3] is on record as “did not proliferate”.
For the molecule “NQIAIDTEKWFYLNKDYTNV [overlapping synthetic 20-mer peptide of Cta1]”, the IFNγ measured in the assay on T cell clone NR9.2 [1] is 0.5 (±0.2) ng.
The same measure, in the same setting: as for “NRSMDQQDSEEFLLQNTLED [overlapping synthetic 20-mer peptide of Cta1]”, the figure is 0.6 (±0.3) ng.

B1: Cta1: Chlamydia-specific T cell antigen-1, protein encoded by C. trachomatis ORF CT788; predicted periplasmic protein of unknown function (protein, listed as Chlamydia trachomatis)
chain: MNSGMFPFTFFLLYICLGMLTAYLANKKNRNLIGWFLAGMFFGIFAIIFLLILPPLPSSTQDNRSMDQQDSEEFLLQNTLEDSEIISIPDTMNQIAIDTEKWFYLNKDYTNVGPISIVQLTAFLKECKHSPEKGIDPQELWVWKKGMPNWEKVKNIPELSGTVKDE
With B1, the “stimulation of NR9.2 to secrete IFNγ (in words)” value in the assay on T cell clone NR9.2 [4] (894 ORFs screened, E. coli expressing the protein) is “stimulated NR9.2 to secrete significant levels of IFNγ”. Further, the “IFNγ secreted by NR9.2” value in the assay with T cell clone NR9.2 [4] (E. coli expressing the ORF, cultured with BMMs then NR9.2, supernatant IFNγ ELISA) is above 370 ng/mL.
